Reference: patent US20100143897A1, “Materials and Methods for Assaying for Glyoxylate” (University of South Florida, priority 2005, published 2010)

Tested on: peptidylglycine α-amidating monooxygenase (PAM)
Experiment: PAM treatment of hippurate: benzamide by HPLC, glyoxylate by malate synthase/malate dehydrogenase/MTS/PMS system
Type: biochemical
Conditions: PAM added to hippurate
Protocol: Spectrophotometric enzyme-linked assays for glyoxylate were initiated by the addition of malate synthase and malate dehydrogenase. […] The absorbance at 490 nm was measured after one hour incubation at 37° C. in the dark. The small amount of MTS reduced for the zero glyoxylate control was subtracted from that obtained in the presence of glyoxylate. Hippurate (N-benzoylglycine, C6H5—CO—NH—CH2—COO^−) is a PAM substrate that is oxidatively converted to benzamide and glyoxylate. […] At 10 min intervals over a period of 110 minutes, 45 μl aliquots were removed and added to 10 μl of 6% (v/v) trifluoroacetic acid to terminate the reaction. Percent conversion of hippurate to benzamide was determined at each time interval by reverse-phase HPLC. […] Following ascorbate removal the addition of 100 ul enzyme couple and PMS/MTS brought the assay to a final volume of 1 ml which contained 100 mM TEA-HCl pH 7.8, 10 mM MgCl2, 400 μM acetyl-CoA, 500 μM NAD^+, 6 U/ml malate synthase, 6 U/ml malate dehydrogenase, and 12 units ascorbate oxidase. […] A control for this experiment was performed at each time point, and contained no hippurate.

Benzamide Produced (Time 40): 0.58 mM | Glyoxylate Produced (Time 40): 0.69 mM | Benzamide Produced (Time 50): 0.70 mM | Glyoxylate Produced (Time 50): 0.67 mM | Benzamide Produced (Time 60): 0.80 mM | Glyoxylate Produced (Time 60): 0.71 mM | Benzamide Produced (Time 70): 0.90 mM | Glyoxylate Produced (Time 70): 0.75 mM | Benzamide Produced (Time 80): 0.98 mM | Glyoxylate Produced (Time 80): 0.77 mM | Benzamide Produced (Time 90): 1.1 mM | Glyoxylate Produced (Time 90): 1.3 mM | Benzamide Produced (Time 100): 1.2 mM | Glyoxylate Produced (Time 100): 1.3 mM | Benzamide Produced (Time 110): 1.3 mM | Glyoxylate Produced (Time 110): 1.3 mM
SMILES: O=C(O)CNC(=O)c1ccccc1 [Hippurate, N-benzoylglycine]
